Measured values published in patent US4939134A, “26-aminocholesterol and derivatives and analogs thereof in the regulation of cholesterol accumulation in body tissue” (New York University, priority 1988, dated 1990).

What was measured:
[1] = test system: Human Fibroblasts; assay: Total cell cholesterol and percent esterified cholesterol in human fibroblasts; format: cell-based; details: 96 h, n = 3
Description: Normal LDLR(+) human fibroblasts (GM3440) were obtained from the National Institute of General Medical Sciences Human Genetic Cell Repository. Stock fibroblast monolayers were maintained in T-75 disposable Nunc flasks, in a medium comprising 10 ml of MEM (Eagle's Minimum Essential Medium with Earl's salts, pH 7.4) supplemented with 10% (v/v) fetal bovine serum (FBS), 2% (v/v) non-essential and essential amino acids, 1% (v/v) MEM vitamins, 1% L-glutamine (292 ug/ml), 1% penicillin (100 U/ml)-streptomycin (100 ug/ml). The fibroblast stock was maintained at 37° C. in a humidified atmosphere of 5% CO2 and 95% air.
For experiments using fibroblasts, confluent stock cultures (5-18 passages) were washed once with Dulbecco's PBS (phosphate buffered saline) prior to the addition of 3 ml aliquots of experimental MEM containing 25% (v/v) D2 O, 9% (v/v) dilapidated FBS, 1% FBS (v/v), 1% MEM vitamins and L-glutamine, and 2% of essential and non-essential amino acids and 20 mM HEPES buffer.
(§1) The fibroblast and hepatoblastoma cells were cultured in media containing 25% D2 O and 1% FBS in order to determine de novo cholesterol synthesis under conditions that permit receptor mediated cholesterol transport, according to the method of Easterman & Javitt et al., J. Lipid Res., 26: 950-954 (1985). Dish cultures of each cell type were prepared, and 26-aminocholesterol, dissolved in N,N-dimethylformamide (DMF, 9 ul per dish, 0.3% v/v) was added to each culture. The cells were then grown to confluence (96 hours, day 5). […] Duplicate or triplicate dishes containing 9 ul of DMF, but without 26-aminocholesterol, were used as controls.
After 96 hours of incubation, medium was removed from the cell cultures, and the cells were washed with Dulbecco's PBS and were harvested with 0.05% trypsin - 0.02% EDTA. The protease was deactivated with an equivolume aliquot of soybean trypsin inhibitor, and the resulting cell suspension was centrifuged for 5 minutes at 500xg. An internal standard of 5B-cholestan-3B-ol was added to the pellets prior to extraction with an 8:4:3 chloroform:methanol:water Folch mixture, as described in Folch et al., J. Biol. Chem., 266: 497-509 (1957). An aliquot of the extract was blown to dryness under nitrogen and silylated with 2:1:1 MSTFA (a sylated reagent supplied by Pierce Co.): toluene:-pyridine. Free cholesterol was determined by gas-liquid chromatography (GLC) on a Perkin-Elmer capillary gas-liquid chromatography model 8320 fitted with a 20 m DE-1 methylsilicon glass column (Supelco). The remaining extract was dried and saponified with 2% ethanolic KOH at 80° C. for one hour. The […] was then re-extracted and total cholesterol was measured by GLC after silylation. Cholesterol ester was calculated as the difference between the total and free cholesterol determinations. Newly synthesized cholesterol was determined by GLC-MS isotope mass ratios, using a Hewlett-Packard GC-MS spectrometer model 5890 fitted with DB-1 methyl silicon 0.18 i.d. 20 m glass column (Supelco), according to the method of J. Lipid. Res., 26: 950-954, supra. […]

[2] = test system: HepG2 Cells; assay: Total cell cholesterol in HepG2 hepatocytes; format: cell-based, human; details: 96 h, n = 3
Source text: HepG2 cells were obtained from Dr. Barbara Knowles of the Wistar Institute, Pennsylvania. The HepG2 stock monolayers were maintained under the same conditions as the fibroblast monolayers, in a medium comprising MEM supplemented with 10% heat-inactivated FBS, and 1% (v/v) each of penicillin-streptomycin solution, non-essential and essential amino acids, and L-glutamine.
For experiments using HepG2 cells, confluent stock monolayers were washed once with Dulbecco's PBS, dissociated with 0.05-0.02% trypsin-EDTA followed by treatment with deoxyribonuclease I (0.1%), and were seeded (3.0×10^6) under identical conditions. The experimental MEM contained 25% (v/v) D2 O, 9% (v/v) delipidated FBS, and 1% (v/v) each of heat-inactivated FBS, penicillin-streptomycin, essential and non-essential amino acids, L-glutamine and 20 mM HEPES.
as §1
After 96 hours of incubation, medium was removed from the cell cultures, and the cells were washed with Dulbecco's PBS and were harvested with 0.05% trypsin - 0.02% EDTA. The protease was deactivated with an equivolume aliquot of soybean trypsin inhibitor, and the resulting cell suspension was centrifuged for 5 minutes at 500xg. An internal standard of 5B-cholestan-3B-ol was added to the pellets prior to extraction with an 8:4:3 chloroform:methanol:water Folch mixture, as described in Folch et al., J. Biol. Chem., 266: 497-509 (1957). An aliquot of the extract was blown to dryness under nitrogen and silylated with 2:1:1 MSTFA (a sylated reagent supplied by Pierce Co.): toluene:-pyridine. Free cholesterol was determined by gas-liquid chromatography (GLC) on a Perkin-Elmer capillary gas-liquid chromatography model 8320 fitted with a 20 m DE-1 methylsilicon glass column (Supelco). The remaining extract was dried and saponified with 2% ethanolic KOH at 80° C. for one hour. The […] was then re-extracted and total cholesterol was measured by GLC after silylation. Cholesterol ester was calculated as the difference between the total and free cholesterol determinations. Newly synthesized cholesterol was determined by GLC-MS isotope mass ratios, using a Hewlett-Packard GC-MS spectrometer model 5890 fitted with DB-1 methyl silicon 0.18 i.d. 20 m glass column (Supelco), according to the method of J. Lipid. Res., 26: 950-954, supra.
For purposes of comparison, ^125 I-LDL and cholesterol assays were also conducted in cultures prepared according to the above methods, but incubated with 26-hydroxycholesterol in one set of experiments and with the sterol 26-thiacholesterol in another set of experiments. These sterols were obtained according to known methods, similar to those described above for 26-aminocholesterol.

Compound	% ESTER (Percent Esterified Cholesterol) ([1]; 0.156 uM) [%]	TOTAL CHOLESTEROL ([1]; 0.156 uM)	% ESTER (Percent Esterified Cholesterol) ([1]; 0.312 uM) [%]	TOTAL CHOLESTEROL ([1]; 0.312 uM)	% ESTER (Percent Esterified Cholesterol) ([1]; 0.625 uM) [%]	TOTAL CHOLESTEROL ([1]; 0.625 uM)	TOTAL CHOLESTEROL ([2]; 0.156 uM)	TOTAL CHOLESTEROL ([2]; 0.312 uM)	TOTAL CHOLESTEROL ([2]; 0.625 uM)	% ESTER (Percent Esterified Cholesterol) ([1]; 5.0 uM) [%]	TOTAL CHOLESTEROL ([1]; 5.0 uM)	% ESTER (Percent Esterified Cholesterol) ([1]; 10.0 uM) [%]	TOTAL CHOLESTEROL ([1]; 10.0 uM)	% ESTER (Percent Esterified Cholesterol) ([1]; 20.0 uM) [%]	TOTAL CHOLESTEROL ([1]; 20.0 uM)	TOTAL CHOLESTEROL ([2]; 5.0 uM)	TOTAL CHOLESTEROL ([2]; 10.0 uM)	TOTAL CHOLESTEROL ([2]; 20.0 uM)
C[C@@H](CN)CCC[C@@H](C)[C@H]1CC[C@H]2[C@@H]3CC=C4C[C@@H](O)CC[C@]4(C)[C@H]3CC[C@]12C [26-NH2, 26-aminocholesterol]	26.4	27.9 +/- 5.3 ug cholesterol per mg cell pro	18.6	31.5 +/- 6.1 ug cholesterol per mg cell pro	6.4	20.3 +/- 6.4 ug cholesterol per mg cell pro	30.6 +/- 3.7 ug cholesterol per mg cell pro	25.0 +/- 0.6 ug cholesterol per mg cell pro	28.8 +/- 1.8 ug cholesterol per mg cell pro									
CC(CO)CCC[C@@H](C)[C@H]1CC[C@H]2[C@@H]3CC=C4C[C@@H](O)CC[C@]4(C)[C@H]3CC[C@]12C (stereo partly drawn) [26-OH, 26-hydroxycholesterol]					28.7	24.7 +/- 2.8 ug cholesterol per mg cell pro			24.7 +/- 2.8 ug cholesterol per mg cell pro									
CC(CS)CCC[C@@H](C)[C@H]1CC[C@H]2[C@@H]3CC=C4C[C@@H](O)CC[C@]4(C)[C@H]3CC[C@]12C (stereo partly drawn) [26-SH]										13.6	26.0 +/- 1.7 ug cholesterol per mg cell pro	31.1	31.3 + /- 4.5 ug cholesterol per mg cell pro	33.1	26.1 +/- 1.0 ug cholesterol per mg cell pro	25.5 +/- 4.3 ug cholesterol per mg cell pro	27.4 +/- 4.0 ug cholesterol per mg cell pro	23.2 +/- 1.2 ug cholesterol per mg cell pro
